Measured values from patent US12503475B2 (Centessa Pharmaceuticals (UK) Limited, priority 2020, dated 2025).
Where two headings read alike, the source gives them in different places.

Target: T1, human orexin type 2 receptor (hOX2R) (Homo sapiens, UniProt O43614)
T1 construct: expressed in transfected cells
T1 sequence (O43614 1-444): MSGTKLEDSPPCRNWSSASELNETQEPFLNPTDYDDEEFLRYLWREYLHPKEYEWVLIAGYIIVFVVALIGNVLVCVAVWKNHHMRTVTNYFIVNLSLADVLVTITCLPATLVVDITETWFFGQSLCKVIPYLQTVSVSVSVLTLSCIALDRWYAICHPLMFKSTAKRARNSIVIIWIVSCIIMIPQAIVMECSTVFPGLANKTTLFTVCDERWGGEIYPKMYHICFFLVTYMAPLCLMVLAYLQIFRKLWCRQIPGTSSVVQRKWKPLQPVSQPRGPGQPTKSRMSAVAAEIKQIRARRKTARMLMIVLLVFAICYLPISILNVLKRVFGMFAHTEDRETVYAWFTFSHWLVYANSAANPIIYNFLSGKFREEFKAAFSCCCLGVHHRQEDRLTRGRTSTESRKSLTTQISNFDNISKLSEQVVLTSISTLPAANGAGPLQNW
Assay: Measurement of orexin type 2 receptor agonist activity (FLIPR calcium fluorescence)
Type: cell-based
Conditions: for EC50: read-out: hOx2 pEC50 (converted); for Emax: CHO, read-out: hOx2 Emax (%)
In short: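 Agonism was read as fluorescence in cells stably expressing human OX2R. E. is the response at 10 μM relative to orexin A as full agonist (100%).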

[1] = CHO cells expressing hOX2R, FLIPR calcium fluorescence

SMILES	EC50 [1]	Emax [1]	Emax
O=C([C@H]1CCO1)N1CC2(CC2)[C@H](NS(=O)(=O)N2CCCC2)[C@@H]1Cc1cccc(-c2ccccc2)c1 [Compound 96, N-((6S,7S)-6-([1,1′-biphenyl]-3-ylmethyl)-5-((R)-oxetane-2-carbonyl)-5-azaspiro[2.4]heptan-7-yl)pyrrolidine-1-sulfonamide]	10 to 100 nM	80 to 90%	
CCNC(=O)N1CC2(CC2)C(NS(=O)(=O)CC)C1Cc1cccc(-c2ccccc2)c1F (racemic) [Compound 52, N-ethyl-7-(ethylsulfonamido)-6-((2-fluoro-[1,1′-biphenyl]-3-yl)methyl)-5-azaspiro[2.4]heptane-5-carboxamide]	0.0794 to 1 nM	90 to 100%	
CN(C)C(=O)N1CC2(CC2)[C@H](NS(C)(=O)=O)[C@@H]1Cc1cccc(-c2ccccc2)c1F [Compound 110, (6S,7S)-6-((2-fluoro-[1,1′-biphenyl]-3-yl)methyl)-N,N-dimethyl-7-(methylsulfonamido)-5-azaspiro[2.4]heptane-5-carboxamide]	0.0794 to 1 nM		90 to 100%
COC1(CNC(=O)N2CC3(CC3)[C@H](NS(C)(=O)=O)[C@@H]2Cc2cccc(-c3ccccc3)c2F)CC1 [Compound 100, (6S,7S)-6-((2-fluoro-[1,1′-biphenyl]-3-yl)methyl)-N-((1-methoxycyclopropyl)methyl)-7-(methylsulfonamido)-5-azaspiro[2.4]heptane-5-carboxamide]	0.0794 to 1 nM	90 to 100%	
CC(C)C(=O)N1CC2(CC2)C(NS(=O)(=O)CF)C1Cc1cccc(-c2ccccc2)c1 (racemic) [Compound 36, N-(6-([1,1′-biphenyl]-3-ylmethyl)-5-isobutyryl-5-azaspiro[2.4]heptan-7-yl)-1-fluoromethanesulfonamide]	1 to 10 nM	90 to 100%	
CN(C)S(=O)(=O)N[C@@H]1[C@H](Cc2cccc(-c3ccccc3)c2F)N(C(=O)N2CC(F)C2)CC12CC2 [Compound 117, N-((6S,7S)-6-((2-fluoro-[1,1′-biphenyl]-3-yl)methyl)-5-(3-fluoroazetidine-1-carbonyl)-5-azaspiro[2.4]heptan-7-yl)-N,N-dimethylsulfuric diamide]	0.0794 to 1 nM	90 to 100%	
CS(=O)(=O)NC1C(Cc2cccc(-c3ccccc3)c2F)N(C(=O)C2(O)CCC2)CC12CC2 (racemic) [Compound 50, N-(6-((2-fluoro-[1,1′-biphenyl]-3-yl)methyl)-5-(1-hydroxycyclobutane-1-carbonyl)-5-azaspiro[2.4]heptan-7-yl)methanesulfonamide]	0.0794 to 1 nM	90 to 100%	
CCS(=O)(=O)NC1C(Cc2cccc(-c3ccccc3)c2)N(C(=O)N2CCC2)CC12CC2 (racemic) [Compound 3]	1 to 10 nM	90 to 100%	
CS(=O)(=O)NC1C(Cc2cccc(-c3cc(F)cc(F)c3)c2F)N(C(=O)C2CCC2)CC12CC2 (racemic) [Compound 29, N-(5-(cyclobutanecarbonyl)-6-((2,3′,5′-trifluoro-[1,1′-biphenyl]-3-yl)methyl)-5-azaspiro[2.4]heptan-7-yl)methanesulfonamide]	0.0794 to 1 nM	90 to 100%	
O=C([C@H](O)C(F)(F)F)N1CC2(CC2)[C@H](NS(=O)(=O)CF)[C@@H]1Cc1cccc(-c2ccccc2)c1 [Compound 94, N-((6S,7S)-6-([1,1′-biphenyl]-3-ylmethyl)-5-((S)-3,3,3-trifluoro-2-hydroxypropanoyl)-5-azaspiro[2.4]heptan-7-yl)-1-fluoromethanesulfonamide]	1 to 10 nM	90 to 100%	

Second part, led by results:

EC50 [1]	Emax [1]	SMILES	Emax
1 to 10 nM	90 to 100%	COC[C@@H](O)C(=O)N1CC2(CC2)[C@H](NS(=O)(=O)CF)[C@@H]1Cc1cccc(-c2ccccc2)c1F [Compound 372, 1-fluoro-N-((6S,7S)-6-((2-fluoro-[1,1′-biphenyl]-3-yl)methyl)-5-((R)-2-hydroxy-3-methoxypropanoyl)-5-azaspiro[2.4]heptan-7-yl)methanesulfonamide]	
0.0794 to 1 nM	90 to 100%	O=C(NCC(F)F)N1CC2(CC2)[C@H](NS(=O)(=O)CF)[C@@H]1Cc1cccc(-c2ccccc2)c1F [Compound 187, (6S,7S)-N-(2,2-difluoroethyl)-6-((2-fluoro-[1,1′-biphenyl]-3-yl)methyl)-7-((fluoromethyl)sulfonamido)-5-azaspiro[2.4]heptane-5-carboxamide]	
1 to 10 nM	90 to 100%	CCS(=O)(=O)N[C@@H]1[C@H](Cc2cccc(-c3cccc(F)c3)c2F)N(C(=O)C(C)(C)O)CC12CC2 [Compound 184, N-((6S,7S)-6-((2,3′-difluoro-[1,1′-biphenyl]-3-yl)methyl)-5-(2-hydroxy-2-methylpropanoyl)-5-azaspiro[2.4]heptan-7-yl)ethanesulfonamide]	
1 to 10 nM	90 to 100%	COCC1(C(=O)N2CC3(CC3)[C@H](NS(C)(=O)=O)[C@@H]2Cc2cccc(-c3ccccc3)c2F)CC1 [Compound 386, N-((6S,7S)-6-((2-fluoro-[1,1′-biphenyl]-3-yl)methyl)-5-(1-(methoxymethyl)cyclopropane-1-carbonyl)-5-azaspiro[2.4]heptan-7-yl)methanesulfonamide]	
1 to 10 nM	90 to 100%	CC(C)(O)C(=O)N1CC2(CC2)[C@H](NS(=O)(=O)C2CC2)[C@@H]1Cc1cccc(-c2cc(F)cc(F)c2)c1F [Compound 230, N-((6S,7S)-5-(2-hydroxy-2-methylpropanoyl)-6-((2,3′,5′-trifluoro-[1,1′-biphenyl]-3-yl)methyl)-5-azaspiro[2.4]heptan-7-yl)cyclopropanesulfonamide]	
0.0794 to 1 nM	90 to 100%	O=C([C@@H](O)C1CC1)N1CC2(CC2)[C@H](NS(=O)(=O)C(F)F)[C@@H]1Cc1cccc(-c2cc(F)cc(F)c2)c1F [Compound 377, N-((6S,7S)-5-((S)-2-cyclopropyl-2-hydroxyacetyl)-6-((2,3′,5′-trifluoro-[1,1′-biphenyl]-3-yl)methyl)-5-azaspiro[2.4]heptan-7-yl)-1,1-difluoromethanesulfonamide]	
10 to 100 nM	80 to 90%	CS(=O)(=O)N[C@@H]1[C@H](Cc2cccc(-c3ccccc3)c2F)N(C(=O)NC2CC(F)C2)CC12CC2 (stereo partly drawn) [Compound 315, (6S,7S)-6-((2-fluoro-[1,1′-biphenyl]-3-yl)methyl)-N-(3-fluorocyclobutyl)-7-(methylsulfonamido)-5-azaspiro[2.4]heptane-5-carboxamide]	
1 to 10 nM	90 to 100%	O=C([C@H]1CCO1)N1CC2(CC2)[C@H](NS(=O)(=O)CF)[C@@H]1Cc1cccc(-c2cc(F)ccc2F)c1F [Compound 169, 1-fluoro-N-((6S,7S)-5-((R)-oxetane-2-carbonyl)-6-((2,2′,5′-trifluoro-[1,1′-biphenyl]-3-yl)methyl)-5-azaspiro[2.4]heptan-7-yl)methanesulfonamide]	
10 to 100 nM	90 to 100%	C[C@@H](C#N)S(=O)(=O)N[C@@H]1[C@H](Cc2cccc(-c3ccccc3)c2)N(C(=O)[C@H]2CCO2)CC12CC2 [Compound 338, (S)-N-((6S,7S)-6-([1,1′-biphenyl]-3-ylmethyl)-5-((R)-oxetane-2-carbonyl)-5-azaspiro[2.4]heptan-7-yl)-1-cyanoethane-1-sulfonamide]	
